Test results reported in patent US11530217B1, “Antitubercular compounds” (priority 2022, dated 2022).
≈ marks a conversion by molar mass, not a printed value.

system: susceptible H37Rv MTB strain; assay: Resazurin Microplate Assay (REMA), anti-tubercular activity, H37Rv; format: cell-based; details: Mycobacterium tuberculosis, 192 h; in vitro, REMA, susceptible H37Rv MTB strain, 8 days incubation; read-out: MIC (μg/mL) H37Rv

`CCOC(=O)c1cc(C(=O)c2ccc(Cl)cc2)n2cc(C)cc(C)c12` [Compound 5c, Ethyl 3-(4-chlorobenzoyl)-6,8-dimethylindolizine-1-carboxylate] was tested. Which MIC did it give?
Its MIC is 0.5 µg/mL (≈ 1.41 µM).

For `COC(=O)c1c(C(=O)OC)c2c(C)cc(C)cn2c1C(=O)c1ccc(Cl)cc1` [Compound 5d, Dimethyl 3-(4-chlorobenzoyl)-6,8-dimethylindolizine-1,2-dicarboxylate], which MIC is on record?
Its MIC is 8 µg/mL (≈ 20 µM).

How did the MIC turn out when `COC(=O)c1c(C(=O)OC)c2c(C)cc(C)cn2c1C(=O)c1ccc(C#N)cc1` [Compound 5l, Dimethyl 3-(4-cyanobenzoyl)-6,8-dimethylindolizine-1,2-dicarboxylate] was run?
Its MIC is 4 µg/mL (≈ 10.2 µM).

same assay, conditions: Mycobacterium tuberculosis, H37RV, 192 h, read-out: MIC (μg/mL) H37Rv

For `COC(=O)c1c(C(=O)OC)c2c(C)cc(C)cn2c1C(=O)c1ccc(OC)cc1` [Compound 5b, Dimethyl 3-(4-methoxybenzoyl)-6,8-dimethylindolizine-1,2-dicarboxylate], which MIC is on record?
Its MIC is 4 µg/mL (≈ 10.1 µM).

Which MIC does the source give for `CCOC(=O)c1cc(C(=O)c2ccc(F)cc2)n2cc(C)cc(C)c12` [Compound 5g, Ethyl 3-(4-fluorobenzoyl)-6,8-dimethylindolizine-1-carboxylate] here?
Its MIC is 4 µg/mL (≈ 11.8 µM).

`CCOC(=O)c1cc(C(=O)c2ccccc2[N+](=O)[O-])n2cc(C)cc(C)c12` [Compound 5h, Ethyl 6,8-dimethyl-3-(2-nitrobenzoyl)indolizine-1-carboxylate] was tested. Which MIC did it give?
The MIC was 4 µg/mL (≈ 10.9 µM).

For `CCOC(=O)c1cc(C(=O)c2cc(C(F)(F)F)cc(C(F)(F)F)c2)n2cc(C)cc(C)c12` [Compound 5i, Ethyl 3-(3,5-bis(trifluoromethyl)benzoyl)-6,8-dimethylindolizine-1-carboxylate], which MIC is on record?
The MIC was 4 µg/mL (≈ 8.75 µM).

Which MIC does the source give for `CCOC(=O)c1cc(C(=O)c2ccc(C#N)cc2)n2cc(C)cc(C)c12` [Compound 5j, Ethyl 3-(4-cyanobenzoyl)-6,8-dimethylindolizine-1-carboxylate] here?
Its MIC is 0.5 µg/mL (≈ 1.44 µM).

Which MIC does the source give for `CCOC(=O)c1cc(C(=O)c2ccc(C)cc2)n2cc(C)cc(C)c12` [Compound 5k, Ethyl 6,8-dimethyl-3-(4-methylbenzoyl)indolizine-1-carboxylate] here?
Its MIC is 0.5 µg/mL (≈ 1.49 µM).

Which MIC does the source give for `COC(=O)c1c(C(=O)OC)c2c(C)cc(C)cn2c1C(=O)c1ccc(C)cc1` [Compound 5m, Dimethyl 6,8-dimethyl-3-(4-methylbenzoyl)indolizine-1,2-dicarboxylate] here?
Its MIC is 0.25 µg/mL (≈ 0.659 µM).
